Data set [1] is described as follows: Toxicity in BALB/C nude mouse xenografted with human PA-1 cells assessed as pathological changes in hematological parameters at 75 to 150 mg/kg,po BID for 21 days. Format: organism-based. The note with it: in vivo, 504 h, dose 75-150 mg/kg, time 21 day. (In xenograft studies the graft and the host belong to different species.)
The subject of data set [2] is Histone-lysine N-methyltransferase EZH2 (Homo sapiens), Q15910 [Y641N]. The note with it: dose 10.0 nM.
Description: Inhibition of EZH2 Y614N mutant (unknown origin) at 10 nM by AlphaLlSA assay
Another data set relates to SK-BR-3. Briefly: Antiproliferative activity against human SK-BR-3 cells assessed as inhibition of cell proliferation incubated for 72 hrs by MTT assay. Format: functional, cell-based. The note with it: SK-BR-3, 72 h.
Data set [3] has as its system PA-1. Briefly: Antiproliferative activity against human PA-1 cells assessed as inhibition of cell proliferation incubated for 72 hrs by MTT assay. Format: functional, cell-based. As to conditions: PA-1, 72 h.
Data set [4] can be described thus: Cmax in Sprague-Dawley rat at 100 mg/kg, po and measured upto 24 hrs by LC-MS/MS analysis. The note with it: in vivo. The class given is ADME, organism-based. The arrangement: dose 100 mg/kg, time < 24 hrs, route po.
Data set [5] in a line: Volume of distribution at steady state in Sprague-Dawley rat at 5 mg/kg, iv and measured upto 24 hrs by LC-MS/MS analysis. The class given is ADME, organism-based. The note with it: in vivo.
The next data set has as its system A2780. The experiment in a line: Inhibition of colony formation in human A2780 cells assessed as reduction in number of colonies at 0.25 to 10 uM incubated for 14 days with medium change every 3 days by crystal violet staining method. The note with it: dose 0.25-10 µM, time 14.0 day. The class given is functional, cell-based.
In data set [6] the test system is PA-1. Briefly: Induction of apoptosis in human PA-1 cells assessed as early apoptotic cells at 10 uM incubated for 48 hrs by AnnexinV-FITC/PI staining based flow cytometry analysis (Rvb= 6.89%). The class given is functional. In general terms: Flow cytometry measures light scatter and fluorescence of single cells or particles in a stream.
The subject of another data set is Mus musculus. Briefly: In vivo inhibition of EZH2 in human PA-1 cells xenografted in BALB/C nude mouse assessed as reduction in H3K27me3 expression level at 75 to 150 mg/kg,po BID for 21 days by immunohistochemical analysis. Format: functional, organism-based. The note with it: dose 75-150 mg/kg, time 21.0 day.
In the next data set the test system is OAW-42. The experiment in a line: Antiproliferative activity against human OAW-42 cells assessed as inhibition of cell proliferation incubated for 72 hrs by MTT assay. Format: functional, cell-based. As to conditions: OAW-42, 72 h. A general note: Tetrazolium dyes change colour on reduction, which living cells bring about.
The test system of data set [7] is PA-1. Briefly: Induction of apoptosis in human PA-1 cells assessed as necrotic cells at 20 uM incubated for 48 hrs by AnnexinV-FITC/PI staining based flow cytometry analysis (Rvb= 1.48%). The class given is functional.
The next data set deals with NCI-H1703. Briefly: Antiproliferative activity against human NCI-H1703 cells assessed as inhibition of cell proliferation incubated for 72 hrs by MTT assay. The class given is functional, cell-based. The note with it: NCI-H1703, 72 h.
Data set [8] relates to Histone-lysine N-methyltransferase EZH2 (Homo sapiens), Q15910 [Y641N]. The experiment in a line: Inhibition of EZH2 […] mutant (unknown origin) at 1 nM by AlphaLlSA assay.
Sequence of Histone-lysine N-methyltransferase EZH2 (Homo sapiens), Q15910 [Y641N] (Q15910 whole entry Y641N): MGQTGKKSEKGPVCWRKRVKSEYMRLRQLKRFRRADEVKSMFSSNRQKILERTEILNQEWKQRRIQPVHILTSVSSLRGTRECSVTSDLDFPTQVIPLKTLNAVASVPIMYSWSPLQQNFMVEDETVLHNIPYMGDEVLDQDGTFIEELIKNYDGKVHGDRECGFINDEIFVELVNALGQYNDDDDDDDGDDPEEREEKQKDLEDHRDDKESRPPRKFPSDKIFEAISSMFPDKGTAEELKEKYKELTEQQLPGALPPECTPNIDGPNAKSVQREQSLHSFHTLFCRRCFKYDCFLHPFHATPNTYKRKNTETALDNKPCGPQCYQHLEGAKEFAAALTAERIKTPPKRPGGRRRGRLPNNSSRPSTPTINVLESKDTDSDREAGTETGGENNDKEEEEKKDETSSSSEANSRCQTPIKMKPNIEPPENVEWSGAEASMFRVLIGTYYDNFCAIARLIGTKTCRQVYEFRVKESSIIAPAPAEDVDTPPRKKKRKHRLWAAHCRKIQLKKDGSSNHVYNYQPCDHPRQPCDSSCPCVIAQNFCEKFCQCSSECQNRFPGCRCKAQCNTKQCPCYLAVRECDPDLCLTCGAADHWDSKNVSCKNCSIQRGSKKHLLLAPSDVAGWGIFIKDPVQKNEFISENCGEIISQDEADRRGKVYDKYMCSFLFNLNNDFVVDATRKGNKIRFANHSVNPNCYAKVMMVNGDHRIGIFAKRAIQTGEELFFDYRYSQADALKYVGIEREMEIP
Data set [9] concerns PA-1. Briefly: Induction of apoptosis in human PA-1 cells assessed as viable cells at 40 uM incubated for 48 hrs by AnnexinV-FITC/PI staining based flow cytometry analysis (Rvb= 88.53%). Format: functional. As to conditions: read-out: Activity.

As a reminder, the pIC50 is −log10 of the IC50, conventionally taken in molar units. The Cmax is the highest concentration seen after dosing. By Vdss is commonly meant the apparent volume that relates the amount in the body to the concentration in plasma or blood. A higher Vdss goes with wide distribution into tissue.

pIC50: −log10 of the molar value. Activity calls are given as the source filed them. No cut-off for these calls is given here.

Take `C=CC(=O)Nc1ccc(C)c(-c2cc(C(=O)NCc3c(C)cc(C)[nH]c3=O)c(C)c(N(CC)C3CCOCC3)c2)c1`: the Activity entry in data set [1] is reported as “Non-Toxic”; in the data set on PA-1 [6] it was 22.39%; in the data set on PA-1 [7], 3.36%. Moreover, the inhibition entry (in data set [2]; in the data set with Mus musculus; in [8]) was “Active” each time. Besides, the negative logarithm of the IC50 (pIC50) was 4.64 with SK-BR-3, 5.00 in the data set with PA-1 [3], < 4.00 in the data set with OAW-42 and 4.58 in the data set on NCI-H1703. This compound also had a Cmax in [4] of 6740 ng/mL. The compound further came in with a volume of distribution (Vdss) in data set [5] of 202.28 mL/kg. Also, in the data set with A2780, the inhibition entry is “Dose-Dependent Effect”. The viability at 40 µM in the data set on PA-1 [9] came to 10.3%.
